The text below walks through data of PubChem BioAssay (NCI).

Some test systems named below: HS 578T breast; BT-549 breast; PC-3 prostate; ACHN renal; SK-MEL-28 melanoma; HCC-2998 colon; 786-0 renal; A498 renal; CAKI-1 renal; RPMI-8226 leukemia; OVCAR-4 ovarian; SK-MEL-2 melanoma; MOLT-4 leukemia; LOX IMVI melanoma; COLO 205 colon; NCI-H226 lung; SNB-19 CNS; SNB-75 CNS; HCT-15 colon; KM12 colon.
Holding throughout (test): inhibition of tumour cell growth, NCI panel, 48 h

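Briefly, cells in 96-well plates were exposed to five compound concentrations for 48 h, and endpoints were estimated by linear interpolation. TGI denotes the concentration required for complete inhibition of growth.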

On to `CN=C(N=Nc1c(O)[nH]c2ccccc12)SCC(=O)c1ccc(Br)cc1`, for which the TGI in the test on HS 578T breast is above 40 µM; in the test with BT-549 breast, above 100 µM; in the test on PC-3 prostate, 29.4 µM; in the test on ACHN renal it was 52.2 µM; in the test with SK-MEL-28 melanoma, above 78.1 µM; in the test with HCC-2998 colon, 13.2 µM. For the same compound, the TGI in the test with 786-0 renal was 16 µM; in the test with A498 renal, 37.2 µM; with CAKI-1 renal, above 65.5 µM; in the test with RPMI-8226 leukemia, above 100 µM; with OVCAR-4 ovarian, above 100 µM; with SK-MEL-2 melanoma it was above 100 µM. Further, the TGI in the test with MOLT-4 leukemia was above 100 µM; in the test on LOX IMVI melanoma, above 47.7 µM; in the test with COLO 205 colon, above 100 µM; with NCI-H226 lung, 48.4 µM; in the test with SNB-19 CNS, above 100 µM; in the test with SNB-75 CNS it was 27.5 µM. Further, the TGI with HCT-15 colon was above 89.3 µM; with KM12 colon it was above 39.5 µM.
Consider `O=C(Oc1ccccn1)c1cc2cc(CCl)ccc2oc1=O`, for which the TGI in the test on HS 578T breast is 59.6 µM; in the test with BT-549 breast, 49.7 µM; in the test on PC-3 prostate it was 38.5 µM; in the test with ACHN renal it was above 100 µM; with SK-MEL-28 melanoma it was above 100 µM; in the test with HCC-2998 colon, above 100 µM. Also, the TGI in the test on 786-0 renal is 39.6 µM; in the test with A498 renal it was above 100 µM; in the test with CAKI-1 renal, 77.3 µM; in the test with RPMI-8226 leukemia, above 100 µM; with OVCAR-4 ovarian, 55 µM; with SK-MEL-2 melanoma, above 100 µM. Also, the TGI is above 100 µM in the test on MOLT-4 leukemia; above 100 µM in the test with LOX IMVI melanoma; above 100 µM in the test on COLO 205 colon; above 100 µM in the test on NCI-H226 lung; 71.2 µM in the test on SNB-19 CNS; 62.1 µM in the test with SNB-75 CNS. Also, the TGI with HCT-15 colon and with KM12 colon was above 100 µM in each case.
Consider `CCOC(=O)NC(Nc1ccc(S(=O)(=O)Nc2nc(C)cc(C)n2)cc1)(C(=O)OCC)C(F)(F)F` (stereo not given), for which the TGI in the test on HS 578T breast, in the test with BT-549 breast, with PC-3 prostate, in the test on ACHN renal, in the test on SK-MEL-28 melanoma and in the test with HCC-2998 colon was above 100 µM each time. In addition, the TGI in the test with 786-0 renal, in the test on A498 renal, with CAKI-1 renal, in the test with RPMI-8226 leukemia, in the test with OVCAR-4 ovarian and in the test with SK-MEL-2 melanoma was above 100 µM each time. The TGI with MOLT-4 leukemia, in the test with LOX IMVI melanoma, in the test with COLO 205 colon, in the test with NCI-H226 lung, with SNB-19 CNS and in the test on SNB-75 CNS was above 100 µM in each case. Also, the TGI with HCT-15 colon and in the test with KM12 colon was above 100 µM each time.
Consider `Cc1cc(S(=O)(=O)Nc2n[nH]c(N)n2)c(SCC(=O)O)cc1Cl`, for which the TGI in the test with HS 578T breast, in the test with BT-549 breast, in the test with PC-3 prostate, in the test with ACHN renal, in the test on SK-MEL-28 melanoma and in the test with HCC-2998 colon was above 10 µM each time. The TGI in the test with 786-0 renal, in the test on A498 renal, with CAKI-1 renal, in the test on RPMI-8226 leukemia, with OVCAR-4 ovarian and with SK-MEL-2 melanoma was above 10 µM in each case. The TGI in the test with MOLT-4 leukemia, with LOX IMVI melanoma, with COLO 205 colon, in the test on NCI-H226 lung, in the test with SNB-19 CNS and with SNB-75 CNS was above 10 µM each time. The TGI in the test with HCT-15 colon and in the test with KM12 colon was above 10 µM in each case.
As for `COc1ccc(C(OCC2OC(n3cc(C)c(=O)[nH]c3=O)CC2n2cc(Cn3cc(Cl)c(=O)[nH]c3=O)nn2)(c2ccccc2)c2ccccc2)cc1` (stereo not given), the TGI in the test with HS 578T breast, in the test on BT-549 breast, in the test on PC-3 prostate, in the test on ACHN renal, in the test with SK-MEL-28 melanoma and in the test on HCC-2998 colon was above 100 µM throughout. For the same compound, the TGI in the test with 786-0 renal, with A498 renal, with CAKI-1 renal, with RPMI-8226 leukemia, in the test on OVCAR-4 ovarian and in the test with SK-MEL-2 melanoma was above 100 µM each time. The TGI in the test on MOLT-4 leukemia, with LOX IMVI melanoma, in the test on COLO 205 colon, in the test with NCI-H226 lung, in the test on SNB-19 CNS and in the test on SNB-75 CNS was above 100 µM throughout. Besides, the TGI with HCT-15 colon and in the test on KM12 colon was above 100 µM each time.
For `CCC(C)OC(=O)/C(Br)=C1/OC(=O)c2ccccc2-c2ccccc21` (stereo not given), the TGI in the test on HS 578T breast is above 100 µM; in the test on BT-549 breast, 37.1 µM; with PC-3 prostate it was above 100 µM; in the test with ACHN renal it was above 100 µM; in the test on SK-MEL-28 melanoma, 86.7 µM; in the test with HCC-2998 colon it was 39.4 µM. In addition, the TGI is above 100 µM with 786-0 renal; above 100 µM in the test on A498 renal; above 100 µM in the test with CAKI-1 renal; 87.9 µM with RPMI-8226 leukemia; above 100 µM in the test on OVCAR-4 ovarian; above 100 µM in the test on SK-MEL-2 melanoma. Moreover, the TGI in the test with MOLT-4 leukemia was 50.7 µM; in the test on LOX IMVI melanoma, 68.2 µM; in the test on COLO 205 colon, 38.1 µM; with NCI-H226 lung, above 100 µM; with SNB-19 CNS, above 100 µM; in the test with SNB-75 CNS it was above 100 µM. In addition, the results for the TGI in the test with HCT-15 colon and in the test on KM12 colon were 38.5 µM and 61 µM, respectively.
Regarding `CN(C)CCCC12CCCCC1=Nc1ccccc12` (stereo not given), the TGI in the test on HS 578T breast, in the test with BT-549 breast, in the test on PC-3 prostate, with ACHN renal, with SK-MEL-28 melanoma and with HCC-2998 colon was above 100 µM throughout. The TGI in the test on 786-0 renal, in the test with A498 renal, with CAKI-1 renal, in the test on RPMI-8226 leukemia, in the test on OVCAR-4 ovarian and with SK-MEL-2 melanoma was above 100 µM throughout. In addition, the TGI with MOLT-4 leukemia, in the test with LOX IMVI melanoma, with COLO 205 colon, with NCI-H226 lung, in the test on SNB-19 CNS and in the test with SNB-75 CNS was above 100 µM each time. Moreover, the TGI in the test on HCT-15 colon and with KM12 colon was above 100 µM throughout.
